One test addresses T1, HGFR (Homo sapiens, UniProt P08581).
T1 construct: purchased Upstate 14-526
Description: HGFR continuous-coupled spectrophotometric assay. In kind it is biochemical. The note with it: Table 3, column 'Ki (μM) or I (%)': cells without % sign; read-out: Ki.
T2 sequence (P08581 1078-1345 limits assumed): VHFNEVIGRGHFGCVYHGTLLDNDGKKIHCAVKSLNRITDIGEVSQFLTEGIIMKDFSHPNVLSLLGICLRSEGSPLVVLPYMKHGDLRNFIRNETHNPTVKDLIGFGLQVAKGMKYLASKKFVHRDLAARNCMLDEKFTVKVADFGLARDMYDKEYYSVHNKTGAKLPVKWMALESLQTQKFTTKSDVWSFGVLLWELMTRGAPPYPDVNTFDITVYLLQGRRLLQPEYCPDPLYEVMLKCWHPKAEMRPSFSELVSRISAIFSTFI
T1 sequence (P08581 974-1390 limits assumed): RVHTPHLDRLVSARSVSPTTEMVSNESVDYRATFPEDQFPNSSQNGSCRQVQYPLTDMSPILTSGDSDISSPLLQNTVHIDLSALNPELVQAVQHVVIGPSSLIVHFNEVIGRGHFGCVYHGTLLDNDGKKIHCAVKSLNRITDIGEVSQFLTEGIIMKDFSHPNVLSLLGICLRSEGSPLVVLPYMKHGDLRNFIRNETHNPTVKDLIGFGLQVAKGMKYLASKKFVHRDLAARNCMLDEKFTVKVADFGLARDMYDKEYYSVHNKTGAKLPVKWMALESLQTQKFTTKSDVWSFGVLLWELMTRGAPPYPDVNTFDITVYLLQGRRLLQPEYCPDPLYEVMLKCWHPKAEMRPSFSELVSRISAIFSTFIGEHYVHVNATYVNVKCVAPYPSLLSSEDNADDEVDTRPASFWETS
Turning to `COc1ccc(OC)c(-c2cnc(N)c(OC(C)c3c(Cl)ccc(F)c3Cl)c2)c1` (centres unmarked) [Example I-556, 3-[1-(2,6-Dichloro-3-fluoro-phenyl)-ethoxy]-5-(2,5-dimethoxy-phenyl)-pyridin-2-ylamine], the Ki (as a rule, the dissociation constant of the complex between target and ligand, obtained from inhibition or displacement) was 0.575 µM.

Take `CC(Oc1cc(-c2ccc(CN3CCOCC3)cc2)cnc1N)c1c(Cl)ccc(F)c1Cl` (centres unmarked) [Example I-572, 3-[1-(2,6-Dichloro-3-fluoro-phenyl)-ethoxy]-5-(4-morpholin-4-ylmethyl-phenyl)-pyridin-2-ylamine]: the Ki amounted to 0.0554 µM.

The test is the same for the next values; noted with them: at 1 pM; Table 6, library procedure 41; read-out: % Inhibition (percent c-MET inhibition).
Take `Cc1ccc2nc(CNC(=O)c3cnc(N)c(OCc4c(Cl)cccc4Cl)c3)cn2c1` [Example L-347]: the inhibition (as a rule, the percentage by which the read-out fell short of the control) at 1 pM stood at 38%.

Regarding `Nc1ncc(C(=O)N2CCC(COc3cccc4cccnc34)C2)cc1OCc1c(Cl)cccc1Cl` [Example L-348], the inhibition at 1 pM came out at 35%.

`Nc1ncc(C(=O)N2CCN(CCO)CC2)cc1OCc1c(Cl)cccc1Cl` [Example L-204]: the inhibition at 1 pM came to 51%.

Regarding `Nc1ncc(C(=O)N2CCN(CC(=O)Nc3ccccn3)CC2)cc1OCc1c(Cl)cccc1Cl` [Example L-280], the inhibition at 1 pM is 56%.

Consider `CC(O)CNC(=O)c1cnc(N)c(OCc2c(Cl)cccc2Cl)c1` [Example L-214], for which the inhibition at 1 pM amounted to 49%.

As to `CC(O)CCNC(=O)c1cnc(N)c(OCc2c(Cl)cccc2Cl)c1` [Example L-238], the inhibition at 1 pM was determined as 35%.

Consider `Nc1ncc(C(=O)NCCC2CCC(=O)N2CCc2ccc(O)cc2)cc1OCc1c(Cl)cccc1Cl` [Example L-314], for which the inhibition at 1 pM was found to be 16%.

As to `Nc1ncc(C(=O)N2CCCCC2CCO)cc1OCc1c(Cl)cccc1Cl` [Example L-207], the inhibition at 1 pM was 33%.

For the compound `Nc1ncc(C(=O)N2CCC(CCO)CC2)cc1OCc1c(Cl)cccc1Cl` [Example L-258], the inhibition at 1 pM is 45%.

In the case of `CN(C)CCNC(=O)c1cnc(N)c(OCc2c(Cl)cccc2Cl)c1` [Example L-221], the inhibition at 1 pM was determined as 29%.

As for `N#CC1(c2ccccc2)CCN(C(=O)c2cnc(N)c(OCc3c(Cl)cccc3Cl)c2)CC1` [Example L-193], the inhibition at 1 pM came to 37%.

As to `CCCOCCNC(=O)c1cnc(N)c(OCc2c(Cl)cccc2Cl)c1` [Example L-255], the inhibition at 1 pM came to 45%.

`COc1cc(CCNC(=O)c2cnc(N)c(OCc3c(Cl)cccc3Cl)c2)ccc1O` [Example L-233]: the inhibition at 1 pM came out at 32%.

On to `CCS(=O)(=O)N1CCN(C(=O)c2cnc(N)c(OCc3c(Cl)cccc3Cl)c2)CC1` [Example L-282], for which the inhibition at 1 pM came to 22%.

Staying with this test, now noted: at 1 pM; Table 7, library procedure 42; read-out: % Inhibition (percent c-MET inhibition).
As for `COCOc1ccc(S(=O)(=O)c2ccc(COc3cc(-c4ccc(C(=O)N5CCC(N6CCCC6)CC5)cc4)cnc3N)cc2)cc1`, the inhibition at 1 pM amounted to 18%.

`Nc1ncc(-c2ccc(C(=O)N3CCC(N4CCCC4)CC3)cc2)cc1OCc1ccc(F)c(C(F)(F)F)c1`: the inhibition at 1 pM came to 13%.

For the compound `CCOC(=O)CCNS(=O)(=O)c1ccc(COc2cc(-c3ccc(C(=O)N4CCC(N5CCCC5)CC4)cc3)cnc2N)cc1`, the inhibition at 1 pM came to 15%.

As to `Nc1ncc(-c2ccc(C(=O)N3CCC(N4CCCC4)CC3)cc2)cc1OCc1nc(NCCO)c2ccccc2n1`, the inhibition at 1 pM is 7%.

On to `Nc1ncc(-c2ccc(C(=O)N3CCC(N4CCCC4)CC3)cc2)cc1OCc1ccc(-c2ccnc(Br)n2)cc1`, for which the inhibition at 1 pM is 17%.

Turning to `Nc1ncc(-c2ccc(C(=O)N3CCC(N4CCCC4)CC3)cc2)cc1OCc1cc(-c2ccc(Cl)cc2)no1`, the inhibition at 1 pM came to 23%.

For `Cn1nc(C(F)(F)F)c2cc(COc3cc(-c4ccc(C(=O)N5CCC(N6CCCC6)CC5)cc4)cnc3N)sc21`, the inhibition at 1 pM was determined as 14%.

Consider `CC(=O)N(c1ccc(C)cc1)c1nc(COc2cc(-c3ccc(C(=O)N4CCC(N5CCCC5)CC4)cc3)cnc2N)cs1`, for which the inhibition at 1 pM came to 9%.

As for `COc1ccc(OC)c(COc2cc(-c3ccc(C(=O)N4CCC(N5CCCC5)CC4)cc3)cnc2N)c1`, the inhibition at 1 pM turned out to be 19%.

In the case of `Nc1ncc(-c2ccc(C(=O)N3CCC(N4CCCC4)CC3)cc2)cc1OCc1ccc(S(=O)(=O)c2ccc(F)cc2)cc1`, the inhibition at 1 pM was 13%.

As for `Cc1noc(C)c1-c1nc(COc2cc(-c3ccc(C(=O)N4CCC(N5CCCC5)CC4)cc3)cnc2N)no1`, the inhibition at 1 pM was 6%.

With `Nc1ncc(-c2ccc(C(=O)N3CCC(N4CCCC4)CC3)cc2)cc1OCc1ccc(OC(F)(F)F)cc1`, the inhibition at 1 pM amounted to 20%.

With `COc1c(C)cnc(COc2cc(-c3ccc(C(=O)N4CCC(N5CCCC5)CC4)cc3)cnc2N)c1C`, the inhibition at 1 pM came to 20%.

On to `Cc1ccc(F)c(COc2cc(-c3ccc(C(=O)N4CCC(N5CCCC5)CC4)cc3)cnc2N)c1F`, for which the inhibition at 1 pM stood at 51%.

In the case of `CN(C)CCNC(=O)c1ccc(COc2cc(-c3ccc(C(=O)N4CCC(N5CCCC5)CC4)cc3)cnc2N)cc1`, the inhibition at 1 pM was found to be 9%.

Staying with this test, now noted: at 50 nM; Table 5, library procedure 40; read-out: % inhibition (percent c-MET inhibition).
`C[C@H](Oc1cc(-c2ccc(C(=O)N3CCCC[C@@H]3CCO)cc2)cnc1N)c1c(Cl)ccc(F)c1Cl` [Example L-47]: the inhibition at 0.05 µM is 83%.

For `CCCNC(=O)c1ccc(-c2cnc(N)c(OC(C)c3c(Cl)ccc(F)c3Cl)c2)cc1` [Example L-66], the inhibition at 0.05 µM turned out to be 73%.

For the compound `CC(C)CCNC(=O)c1ccc(-c2cnc(N)c(OC(C)c3c(Cl)ccc(F)c3Cl)c2)cc1` [Example L-67], the inhibition at 0.05 µM was determined as 53%.

Take `CC(Oc1cc(-c2ccc(C(=O)N3CCOCC3)cc2)cnc1N)c1c(Cl)ccc(F)c1Cl` [Example L-103]: the inhibition at 0.05 µM was 91%.

Regarding `CC(Oc1cc(-c2ccc(C(=O)NCCOCCO)cc2)cnc1N)c1c(Cl)ccc(F)c1Cl` [Example L-13], the inhibition at 0.05 µM came out at 76%.

Turning to `COc1cc(CNC(=O)c2ccc(-c3cnc(N)c(OC(C)c4c(Cl)ccc(F)c4Cl)c3)cc2)cc(OC)c1` [Example L-113], the inhibition at 0.05 µM was determined as 57%.

As to `CC(Oc1cc(-c2ccc(C(=O)N3CCN(c4ccccn4)CC3)cc2)cnc1N)c1c(Cl)ccc(F)c1Cl` [Example L-33], the inhibition at 0.05 µM came to 63%.

As for `CC(NC(=O)c1ccc(-c2cnc(N)c(OC(C)c3c(Cl)ccc(F)c3Cl)c2)cc1)c1ccc(O)cc1` [Example L-93], the inhibition at 0.05 µM was determined as 62%.

Consider `CCCCN(C)C(=O)c1ccc(-c2cnc(N)c(OC(C)c3c(Cl)ccc(F)c3Cl)c2)cc1` [Example L-115], for which the inhibition at 0.05 µM was determined as 63%.

Regarding `CC(Oc1cc(-c2ccc(C(=O)N(C)C3CCCC3)cc2)cnc1N)c1c(Cl)ccc(F)c1Cl` [Example L-130], the inhibition at 0.05 µM is 60%.

The same test, now with this note: at 1 μM; Table 8, library procedure 43; read-out: % Inhibition (percent c-MET inhibition).
Consider `Cc1cc(COc2cc(-c3ccc(C(=O)N4CC(C)NC(C)C4)cc3)cnc2N)nc(-c2ccc(C(F)(F)F)cn2)n1` (centres unmarked), for which the inhibition at 1 µM stood at 7%.

As to `Cc1onc(-c2ccccc2)c1COc1cc(-c2ccc(C(=O)N3CC(C)NC(C)C3)cc2)cnc1N` (centres unmarked), the inhibition at 1 µM worked out at 16%.

For the compound `CC1CN(C(=O)c2ccc(-c3cnc(N)c(OCc4nccn4Cc4ccccc4)c3)cc2)CC(C)N1` (centres unmarked), the inhibition at 1 µM came to 11%.

For `CC1CN(C(=O)c2ccc(-c3cnc(N)c(OCc4cc(F)c(F)c(F)c4)c3)cc2)CC(C)N1` (centres unmarked), the inhibition at 1 µM came out at 11%.

Take `CC1CN(C(=O)c2ccc(-c3cnc(N)c(OCc4cc(F)c(F)cc4F)c3)cc2)CC(C)N1` (centres unmarked): the inhibition at 1 µM is 20%.

As to `Cc1noc(C)c1-c1nc(COc2cc(-c3ccc(C(=O)N4CC(C)NC(C)C4)cc3)cnc2N)no1` (centres unmarked), the inhibition at 1 µM amounted to 14%.

With `CC1CN(C(=O)c2ccc(-c3cnc(N)c(OCc4ccc(F)cc4F)c3)cc2)CC(C)N1` (centres unmarked), the inhibition at 1 µM was found to be 20%.

Turning to `CC1CN(C(=O)c2ccc(-c3cnc(N)c(OCc4ccc(OC(F)(F)F)cc4)c3)cc2)CC(C)N1` (centres unmarked), the inhibition at 1 µM stood at 21%.

A further test has as its target T2, Met kinase domain (GST fusion protein) (Homo sapiens, UniProt P08581).
T2 construct: Purified GST fusion protein containing the Met kinase domain
Kind of test: Met transphosphorylation assay (ELISA, poly(glu-tyr) substrate).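 Also: Cell-free ELISA with plate-bound poly(Glu:Tyr 4:1) phosphorylated by GST-fused Met kinase domain plus ATP and Mn2+, phosphotyrosine detected by anti-phosphotyrosine antibody with HRP and ABTS read-out.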 In kind it is biochemical. The note with it: Table 2; read-out: Met IC50. A general note: An ELISA detects its analyte on a solid surface through an enzyme-linked reagent.
For the compound `Nc1ncc(-c2cccc(NS(=O)(=O)CCN3CCOCC3)c2)cc1OCc1c(F)ccc(F)c1Cl` [Example I-257, 2-Morpholin-4-yl-ethanesulfonic acid {3-[6-amino-5-(2-chloro-3,6-difluoro-benzyloxy)-pyridin-3-yl]-phenyl}-amide], the 50% inhibitory concentration (IC50) (as a rule, the concentration that inhibits the measured activity by half) came to 1.64 µM.

Take `CN(C)[C@H]1CCN(C(=O)c2ccc(-c3cnc(N)c(OCc4ccc(F)cc4Cl)c3)cc2)C1` [Example I-205, {4-[6-Amino-5-(2-chloro-4-fluoro-benzyloxy)-pyridin-3-yl]-phenyl}-[(3S)-3-dimethylamino-pyrrolidin-1-yl]-methanone]: the IC50 is 61 µM.

As for `Nc1ncc(-c2ccc(NS(=O)(=O)CCN3CCCC3)cc2)cc1OCc1c(F)ccc(F)c1Cl` [Example I-245], the IC50 is 0.082 µM.

For the compound `Nc1ncc(-c2ccc(C(=O)NCCCN3CCOCC3)cc2)cc1OCc1ccc(F)cc1Cl` [Example I-210, 4-[6-Amino-5-(2-chloro-4-fluoro-benzyloxy)-pyridin-3-yl]-N-(3-morpholin-4-yl-propyl)-benzamide], the 50% inhibitory concentration (IC50) came out at 5.8 µM.

Staying with this test, now noted: plain numbers in column Met IC50 (μM) of Table 2; read-out: Met IC50.
Consider `CC(Oc1cc(-c2ccc(NC(=O)N3CC[C@H](N)C3)cc2)cnc1N)c1c(Cl)ccc(F)c1Cl` (stereo partly drawn) [Example I-376, (S)-3-Amino-pyrrolidine-1-carboxylic acid (4-{6-amino-5-[1-(2,6-dichloro-3-fluoro-phenyl)-ethoxy]-pyridin-3-yl}-phenyl)-amide], for which the IC50 was 0.052 µM.

The same test, now with this note: read-out: Met IC50.
With `Nc1ncc(-c2cccc(C(=O)N3CC[C@H](N)C3)c2)nc1OCc1c(F)ccc(F)c1Cl` [II-50, {3-[5-Amino-6-(2-chloro-3,6-difluoro-benzyloxy)-pyrazin-2-yl]-phenyl}-[(3S)-3-amino-pyrrolidin-1-yl]-methanone], the IC50 is 0.91 µM.

Take `Nc1ncc(-c2ccc(C(=O)NCCN3CCOCC3)cc2)nc1OCc1c(F)ccc(F)c1Cl` [II-45, 4-[5-Amino-6-(2-chloro-3,6-difluoro-benzyloxy)-pyrazin-2-yl]-N-(2-morpholin-4-yl-ethyl)-benzamide]: the IC50 turned out to be 1.11 µM.

Values taken from patent US20050009840A1 (SUGEN, INC., priority 2003, published 2005).
